Earlier results in patent US12419901B2, “Prodrugs of deoxynucleosides for treatment of diseases caused by unbalanced nucleotide pools” (UCB BIOSCIENCES, INC., priority 2018, dated 2025).

Tested on: dGK deficient patient derived fibroblasts
Conditions: 50 μM in cell culture medium, quiescent dGK-deficient fibroblasts

For `Nc1nc2c(ncn2[C@H]2C[C@H](O)[C@@H](CO)O2)c(=O)[nH]1` [dGuo, deoxyguanosine], the “mtDNA depletion (previously demonstrated)” value is given as “sufficient to prevent this depletion”.
